In ChEMBL document CHEMBL5329202, “New aryl-/heteroarylpiperazine derivatives of 1,7-dimethyl-8,9-diphenyl-4-azatricyclo[5.2.1.02,6]dec-8-ene-3,5,10-trione: Synthesis and preliminary studies of biological activities” (Bioorg Med Chem, 2023):
Calls of active or inactive are those of the source. No cut-off for these calls is given here.

Experiments:
[1] = biological target: 5-hydroxytryptamine receptor 2A (Rattus norvegicus, UniProt P14842); assay: Displacement of [3H]ketanserin from Sprague-Dawley rat 5-HT2A receptor assessed as inhibition constant measured after 60 mins by competitive binding assay
[2] = Selectivity index, ratio of IC50 for cytotoxicity against human HMEC-1 cells to IC50 for cytotoxicity against human A549 cells; type: toxicity, cell-based; details: HMEC-1 cells and A549 cells, read-out: Ratio IC50
HCT-116 [3] = assay: Induction of apoptosis in human HCT-116 cells assessed as increase in caspase-3/7 activity at IC50 incubated for 24 hrs by Glo assay; type: functional, cell-based
PC-3 [4] = assay: Cytotoxicity against human PC-3 cells assessed as cell growth inhibition measured after 72 hrs by MTT assay; type: functional, cell-based; details: PC-3, 72 h
PC-3 [5] = assay: Induction of apoptosis in human PC-3 cells assessed as necrotic cells at IC50 incubated for 72 hrs by Annexin V-FITC/PI staining based flow cytometric analysis (reference value: 3.6 %); type: functional
SW480 [6] = assay: Induction of apoptosis in human SW480 cells assessed as necrotic cells at IC50 incubated for 72 hrs by Annexin V-FITC/PI staining based flow cytometric analysis (reference value: 0.1 %); type: functional
PC-3 [7] = assay: Antiproliferative activity against human PC-3 cells assessed as reduction in cell number at IC50 measured after 72 hrs by trypan blue dye based assay relative to control; type: functional; set-up: scale not given: the % may be the effect or the level left
SW480 [8] = assay: Induction of apoptosis in human SW480 cells assessed as late apoptotic cells at IC50 incubated for 72 hrs by Annexin V-FITC/PI staining based flow cytometric analysis (reference value: 0.8 %); type: functional
K562 [9] = assay: Antiproliferative activity against human K562 cells assessed as reduction in cell number at IC50 measured after 72 hrs by trypan blue dye based assay relative to control; type: functional; set-up: scale not given: the % may be the effect or the level left
PC-3 [10] = assay: Induction of apoptosis in human PC-3 cells assessed as increase in caspase-3/7 activity at IC50 incubated for 24 hrs by Glo assay relative to control; type: functional
Histamine H1 receptor = Histamine H1 receptor (Rattus norvegicus, UniProt P31390); assay: Displacement of [3H]pyrilamine from Sprague-Dawley rat H1 receptor assessed as inhibition constant measured after 30 mins by competitive binding assay
PC-3 [11] = assay: Induction of apoptosis in human PC-3 cells assessed as viable cells at IC50 incubated for 72 hrs by Annexin V-FITC/PI staining based flow cytometric analysis (reference value: 94.4 %); type: functional
K562 [12] = assay: Induction of apoptosis in human K562 cells assessed as increase in caspase-3/7 activity at IC50 incubated for 24 hrs by Glo assay relative to control; type: functional
[13] = Selectivity index, ratio of IC50 for cytotoxicity against human HMEC-1 cells to IC50 for cytotoxicity against human SW620 cells
SW480 [14] = assay: Induction of apoptosis in human SW480 cells assessed as early apoptotic cells at IC50 incubated for 72 hrs by Annexin V-FITC/PI staining based flow cytometric analysis (reference value: […]); type: functional
[15] = Selectivity index, ratio of IC50 for cytotoxicity against human HMEC-1 cells to IC50 for cytotoxicity against human HCT-116 cells; type: toxicity, cell-based; details: HMEC-1 cells and HCT-116 cells, read-out: Ratio IC50
PC-3 [16] = assay: Induction of apoptosis in human PC-3 cells assessed as early apoptotic cells at IC50 incubated for 72 hrs by Annexin V-FITC/PI staining based flow cytometric analysis (reference value: 0.3 %); type: functional
D(2) dopamine receptor = D(2) dopamine receptor (Rattus norvegicus, UniProt P61169); assay: Antagonist activity at Sprague-Dawley rat striatum membrane D2 receptor assessed as inhibition of dopamine stimulated [35S]GTPgammaS binding measured after 90 mins by scintillation counter analysis; type: functional, cell membranes
SW480 [17] = assay: Antiproliferative activity against human SW480 cells assessed as reduction in cell number at IC50 measured after 72 hrs by trypan blue dye based assay relative to control; type: functional; set-up: scale not given: the % may be the effect or the level left
HaCaT = assay: Induction of apoptosis in human HaCaT cells at IC50 incubated for 72 hrs by Annexin V-FITC/PI staining based flow cytometric analysis; type: functional, cell-based
HMEC-1 [18] = assay: Antiproliferative activity against human HMEC-1 cells assessed as reduction in cell viability at IC50 measured after 72 hrs by trypan blue dye based assay relative to control; type: toxicity; details: hmec-1, 72 h
SW480 [19] = assay: Induction of apoptosis in human SW480 cells assessed as viable cells at IC50 incubated for 72 hrs by Annexin V-FITC/PI staining based flow cytometric analysis (reference value: 97.7 %); type: functional
SW480 [20] = assay: Antiproliferative activity against human SW480 cells assessed as reduction in cell viability at IC50 measured after 72 hrs by trypan blue dye based assay relative to control; type: functional
PC-3 [21] = assay: Induction of apoptosis in human PC-3 cells assessed as late apoptotic cells at IC50 incubated for 72 hrs by Annexin V-FITC/PI staining based flow cytometric analysis (reference value: 1.7 %); type: functional
PC-3 [22] = assay: Antiproliferative activity against human PC-3 cells assessed as reduction in cell viability at IC50 measured after 72 hrs by trypan blue dye based assay relative to control; type: functional
HCT-116 [23] = assay: Induction of apoptosis in human HCT-116 cells assessed as increase in caspase-3/7 activity at IC50 incubated for 24 hrs by Glo assay relative to control; type: functional
HCT-116 [24] = assay: Antiproliferative activity against human HCT-116 cells assessed as decrease in IL-6 level at IC50 measured after 72 hrs by ELISA assay relative to control; type: functional; set-up: scale not given: the % may be the effect or the level left
SW-620 [25] = assay: Antiproliferative activity against human SW620 cells assessed as reduction in cell viability at IC50 measured after 72 hrs by trypan blue dye based assay relative to control; type: functional
SW-620 [26] = assay: Induction of apoptosis in human SW620 cells assessed as late apoptotic cells at IC50 incubated for 72 hrs by Annexin V-FITC/PI staining based flow cytometric analysis (reference value: 1.2 %); type: functional
SW-620 [27] = assay: Antiproliferative activity against human SW620 cells assessed as reduction in cell number at IC50 measured after 72 hrs by trypan blue dye based assay relative to control; type: functional; set-up: scale not given: the % may be the effect or the level left
SW-620 [28] = assay: Induction of apoptosis in human SW620 cells assessed as early apoptotic cells at IC50 incubated for 72 hrs by Annexin V-FITC/PI staining based flow cytometric analysis (reference value: 5.2 %); type: functional
SW-620 [29] = assay: Induction of apoptosis in human SW620 cells assessed as viable cells at IC50 incubated for 72 hrs by Annexin V-FITC/PI staining based flow cytometric analysis (reference value: 92.9 %); type: functional
SW-620 [30] = assay: Induction of apoptosis in human SW620 cells assessed as necrotic cells at IC50 incubated for 72 hrs by Annexin V-FITC/PI staining based flow cytometric analysis (reference value: 0.7 %); type: functional
SW-620 [31] = assay: Antiproliferative activity against human SW620 cells assessed as decrease in IL-6 level at IC50 measured after 72 hrs by ELISA assay relative to control; type: functional; set-up: scale not given: the % may be the effect or the level left
HMEC-1 [32] = assay: Induction of apoptosis in human HMEC-1 cells assessed as increase in caspase-3/7 activity at IC50 incubated for 24 hrs by Glo assay relative to control; type: functional

Sequence of Histamine H1 receptor (P31390 whole entry): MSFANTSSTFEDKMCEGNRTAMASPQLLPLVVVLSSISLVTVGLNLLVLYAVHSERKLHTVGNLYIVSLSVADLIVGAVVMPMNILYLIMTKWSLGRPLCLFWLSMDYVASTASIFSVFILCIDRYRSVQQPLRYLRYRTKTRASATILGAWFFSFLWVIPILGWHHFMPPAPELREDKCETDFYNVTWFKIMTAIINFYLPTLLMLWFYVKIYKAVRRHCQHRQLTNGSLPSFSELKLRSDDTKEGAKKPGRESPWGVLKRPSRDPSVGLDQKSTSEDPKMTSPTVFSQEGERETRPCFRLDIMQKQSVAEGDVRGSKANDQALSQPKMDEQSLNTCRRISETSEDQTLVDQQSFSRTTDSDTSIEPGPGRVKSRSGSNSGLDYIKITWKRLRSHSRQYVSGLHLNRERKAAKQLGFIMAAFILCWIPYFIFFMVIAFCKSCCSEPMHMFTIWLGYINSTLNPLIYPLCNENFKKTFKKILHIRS
Sequence of 5-hydroxytryptamine receptor 2A (P14842 whole entry): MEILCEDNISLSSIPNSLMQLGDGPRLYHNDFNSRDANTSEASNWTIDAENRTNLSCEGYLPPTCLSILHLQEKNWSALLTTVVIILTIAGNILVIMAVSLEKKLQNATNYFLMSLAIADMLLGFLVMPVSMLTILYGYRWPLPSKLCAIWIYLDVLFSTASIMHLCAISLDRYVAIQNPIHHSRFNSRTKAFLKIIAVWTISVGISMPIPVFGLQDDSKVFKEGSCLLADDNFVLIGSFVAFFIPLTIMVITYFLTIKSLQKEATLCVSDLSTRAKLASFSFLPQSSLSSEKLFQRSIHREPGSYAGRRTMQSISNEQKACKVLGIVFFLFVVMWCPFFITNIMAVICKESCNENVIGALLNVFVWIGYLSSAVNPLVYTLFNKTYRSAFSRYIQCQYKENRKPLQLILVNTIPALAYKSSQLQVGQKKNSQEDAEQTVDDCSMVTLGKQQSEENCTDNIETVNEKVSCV
Sequence of D(2) dopamine receptor (P61169 whole entry): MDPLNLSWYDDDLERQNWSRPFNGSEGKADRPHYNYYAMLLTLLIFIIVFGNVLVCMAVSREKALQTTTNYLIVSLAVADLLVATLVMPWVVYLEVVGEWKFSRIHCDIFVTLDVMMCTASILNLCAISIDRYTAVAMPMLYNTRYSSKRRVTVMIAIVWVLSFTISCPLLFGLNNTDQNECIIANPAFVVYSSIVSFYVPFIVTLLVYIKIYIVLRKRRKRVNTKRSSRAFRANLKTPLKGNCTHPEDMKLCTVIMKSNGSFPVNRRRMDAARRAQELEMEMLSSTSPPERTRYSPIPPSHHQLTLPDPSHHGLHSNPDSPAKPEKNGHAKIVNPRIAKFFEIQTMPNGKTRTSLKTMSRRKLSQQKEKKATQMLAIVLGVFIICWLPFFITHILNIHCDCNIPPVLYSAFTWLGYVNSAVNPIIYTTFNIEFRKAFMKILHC

Row | SMILES | Ki [1] [µM] | selectivity ratio [2] | Activity (HCT-116 [3]) | IC50 (PC-3 [4]) [µM] | Activity (SW480 [6]) [%] | Activity (SW480 [8]) [%] | Activity (K562 [9]) [%] | Ki (Histamine H1 receptor) [µM] | Activity (K562 [12]) [%] | Ratio IC50 [13] | Activity (SW480 [14]) [%] | selectivity ratio [15] | IC50 (D(2) dopamine receptor) [µM] | Activity (SW480 [17]) [%] | Activity (HaCaT) | Activity (HMEC-1 [18]) | Activity (SW480 [19]) [%] | Activity (SW480 [20]) [%] | Activity (HCT-116 [23]) [%] | Activity (HCT-116 [24]) [%] | other results
1 | CC12C(=O)C(C)(C(c3ccccc3)=C1c1ccccc1)C1C(=O)N(CCCCN3CCN(c4cccc(Cl)c4)CC3)C(=O)C12 (stereo unspecified) | 25.3 | 0.86 | inactive | 8.61 | 0.1 | 1.2 | 82 | 0.08 | 74 | 1.38 | 16.8 | 3.54 | 24.8 | 39 | inactive | Non-Toxic | 81.9 | 21 |  |  | Activity (PC-3 [5]): 2.1%; Activity (PC-3 [7]): 29%; Activity (PC-3 [10]): 70%; Activity (PC-3 [11]): 78.5%; Activity (PC-3 [16]): 3.3%; Activity (PC-3 [21]): 16.2%; Activity (PC-3 [22]): 26%
2 | CC12C(=O)C(C)(C(c3ccccc3)=C1c1ccccc1)C1C(=O)N(CCCCN3CCN(c4ccccn4)CC3)C(=O)C12 (stereo unspecified) | 4.7 | 2.28 | inactive | 21.2 |  |  | 79 | 0.6 | 74 | 2.29 |  | 4.37 | 50.3 |  | inactive | Non-Toxic |  |  |  |  | 
3 | CC12C(=O)C(C)(C(c3ccccc3)=C1c1ccccc1)C1C(=O)N(CCCCN3CCN(c4ncccn4)CC3)C(=O)C12 (stereo unspecified) |  | 1.69 |  | 20.4 |  |  | 64 | 0.006 | 22 | 2.26 |  | 6.6 | 22.6 |  | inactive | Non-Toxic |  |  | 137 | 53 | 
4 | COc1ccccc1N1CCN(CCCCN2C(=O)C3C(C2=O)C2(C)C(=O)C3(C)C(c3ccccc3)=C2c2ccccc2)CC1 (stereo unspecified) | 0.2 | 1.86 |  | 14.6 | 0.1 | 1.7 | 88 | 0.3 | 22 | 6.3 | 11.1 | 3.4 | 11.6 | 40 | inactive | Non-Toxic | 87.1 | 22 | 53 | 53 | Activity (SW-620 [25]): 27%; Activity (SW-620 [26]): 1.8%; Activity (SW-620 [27]): 27%; Activity (SW-620 [28]): 7.6%; Activity (SW-620 [29]): 89.2%; Activity (SW-620 [30]): 1.4%; Activity (SW-620 [31]): 31%
5 | CC12C(=O)C(C)(C(c3ccccc3)=C1c1ccccc1)C1C(=O)N(CCCCN3CCN(c4ccccc4F)CC3)C(=O)C12 (stereo unspecified) | 0.3 | 0.58 |  | 9.19 | 0.1 | 1.4 | 82 | 0.007 | 74 | 0.79 | 10.8 | 3.95 | 18.3 | 46 |  | Non-Toxic | 87.8 | 21 | 137 | 53 | Activity (PC-3 [5]): 2.1%; Activity (PC-3 [7]): 27%; Activity (PC-3 [10]): 127%; Activity (PC-3 [11]): 75.6%; Activity (PC-3 [16]): 6.3%; Activity (HMEC-1 [32]): 13%; Activity (PC-3 [21]): 16.2%; Activity (PC-3 [22]): 26%
